Assay results reported in PubChem BioAssay (NCI).
Where “and” joins values, the source holds several entries; their conditions need not be identical. Equal entries are not always repeated.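 48-hour exposure; five concentrations; linearly interpolated endpoints. GI50 = concentration required for 50% inhibition of growth. Definition used: TGI = concentration required for complete inhibition of growth.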

How the values were obtained:
Assay in all cases: NCI-60 cell line screen, 48 h
[1] = tested on: NCI-H522 lung
[2] = tested on: SF-295 CNS
[3] = tested on: SK-MEL-28 melanoma
[4] = tested on: SK-MEL-5 melanoma
[5] = tested on: COLO 205 colon
[6] = tested on: CAKI-1 renal
[7] = tested on: U251 CNS
[8] = tested on: HCT-116 colon
[9] = tested on: SNB-19 CNS
[10] = tested on: CCRF-CEM leukemia

SMILES	TGI [1]	TGI [2] [µM]	TGI [3] [µM]	TGI [4] [µM]	TGI [5] [µM]	TGI [6] [µM]	TGI [7] [µM]	TGI [8] [µM]	TGI [9] [µM]	TGI [10] [µM]	GI50 [1]	GI50 [2] [µM]	GI50 [3]	GI50 [7]	GI50 [9]	GI50 [4] [µM]	GI50 [5] [µM]	GI50 [6] [µM]	GI50 [10]	GI50 [8]
N#CCc1nc2c(s1)C(=O)c1ccccc1C2=O	29.9 µM	34.5	32.8	23.7	33.4	38.6	31.1	27.6	40.7											
C/C(=N\N=C(N)N)c1sc(-c2nc(C)c(/C(C)=N/N=C(N)N)s2)nc1C	> 77 µM	> 100	> 100	> 100	> 90.6	> 100	> 100	> 100	> 100	> 100										
NC(=O)c1ccc(NC(=O)c2oc3ccccc3c2-c2cnn(-c3ccccc3)c2)cc1	> 100 µM	> 100	> 100				> 100		> 100	> 23.2	> 100 µM	> 35.5	> 100 µM	5.42 µM	8.98 µM					
NC(=O)Cn1c(=O)[nH]c(=O)c2[nH]cnc21	> 100 µM		> 100	> 100	> 100		> 100	> 100	> 100	> 100										
O=C(O)c1c(Cl)c(Cl)c(Cl)c(Cl)c1-c1c2cc(I)c(=O)c(I)c-2oc2c(I)c(O)c(I)cc12	59.9 µM and 83.2 µM	78.7	73	68.9	159	86.7	83.9	81.5	63.8	95.7	26.6 µM and 39.4 µM	38.1	55.9 µM and 32.9 µM	26.3 µM and 35.1 µM	38.2 µM and 28.6 µM	36.3	45.8	39	30.2 µM and 41.9 µM	45.4 µM and 37.2 µM
CC1=C[C@H]2C[C@@]3(C)O[C@@H]([C@]4(C)CC[C@H]([C@@H](C)C(=O)O)OO4)CC3C(C)(C)[C@H]2CC1 (stereo not given in full)	0.832 µM	3.44	2.95		3.31	2.89	3.01	3.78	3.28											
COC(=N)/C(=C1\OC(N)=C(c2ccc(Cl)cc2)C1=O)c1ccc(Cl)cc1	> 100 µM	> 100	> 100	> 100	> 100	> 100	> 100	> 100	> 100	> 100										
O=C1CCCC2COc3ccc(O)c1c32 (stereo not given)	> 100 µM	> 100	> 100	> 100	> 100		> 100		> 100	> 100										
Cc1ccc(C)c(NC(=O)CCc2n[nH]c(=S)o2)c1	> 100 µM	> 100	> 100	> 100	> 100	> 100	> 100	> 100	> 100	> 100										
COc1cc([N+](=O)[O-])c2ncccc2c1O		6.77	7.78	2.9	3.46	30.9	> 100	82.6	> 100	> 100		2.29	2.77 µM	3.2 µM	3.19 µM	1.47	1.7	4.84	95.2 µM	4.26 µM
NC(=NC1C2CC3CC(C2)CC1C3)Nc1ccc(I)cc1 (stereo not given)	11.2 µM	6.75	7.58	2.95	2.64	13.1	12.6	10.4	16.6	> 100	2.63 µM	2.51	2.53 µM	3.42 µM	4.35 µM	1.57	1	3.29	3.43 µM	3.11 µM
O=C1CCCc2c(O)ccc(O)c21	25.7 µM	> 100	> 100	> 100	> 100		> 100	> 100	> 100	71.7										
C[P+](C)(CC(F)(F)F)c1ccccc1	> 100 µM	> 100		> 100	> 100		> 100	> 100	> 100	> 100										
O=C(NNc1ccc([N+](=O)[O-])cc1)C1OC(CO)C(O)C1O (stereo not given)		> 100	> 100	> 100	> 100	> 100	> 100	> 100	> 100	> 100										
Cc1nc(Nc2ccc([N+](=O)[O-])cc2)sc1C(=O)/C=C/c1ccc(N(C)C)cc1	> 100 µM	> 100	> 100	> 100	> 100	> 100	> 100		> 100	> 100										
N#CC(C#N)=C/C=C/c1cccc([N+](=O)[O-])c1		10.3	3.23	2.66	3.26	4	5.03	1.1	16	15.2		2.28	1.38 µM	1.08 µM	3.35 µM	1.35	1.26	0.457	0.556 µM	0.277 µM
Cc1[nH]nc(C(=O)N/N=C/c2cccs2)c1N=NN(C)C	29.5 µM	45.2		50.2	28.2	25.9	32.1	> 100	27.6	> 100										
COc1cc(C(N)=O)c(OC)c(OC)c1OC	> 100 µM	> 100	> 100	> 100	> 100		> 100	> 100	> 100	> 100										
CN(C)/C(=N/C(=O)Nc1ccccc1)SCc1ccccc1	> 100 µM	> 100	> 100	> 100	> 100	> 100	> 100		> 100	> 100										
COc1cc(C=NCC(=O)CSC(c2ccccc2)c2ccccc2)cc(OC)c1OC		58.2	> 100	24.4	33	> 100	> 100	> 100	> 100	> 100		11.5	23.8 µM	32.2 µM	30 µM	11.8	4.96	25.2	5.41 µM	14.1 µM
